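These data come from cells grown in 96-well plates and exposed to compound for 48 hours at five concentrations. GI50 = concentration required for 50% inhibition of growth. TGI: total growth inhibition.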
Columns and labels:
Assay in all cases: NCI-60 cell line screen, 48 h
A549 NSCLC = tested on: A549 NSCLC
NCI-H460 lung = tested on: NCI-H460 lung
NCI-H522 lung = tested on: NCI-H522 lung
OVCAR-5 ovarian = tested on: OVCAR-5 ovarian
OVCAR-8 ovarian = tested on: OVCAR-8 ovarian
SK-MEL-28 melanoma = tested on: SK-MEL-28 melanoma
SNB-75 CNS = tested on: SNB-75 CNS
TK-10 renal = tested on: TK-10 renal
UO-31 renal = tested on: UO-31 renal
MDA-MB-231 breast = tested on: MDA-MB-231 breast
RXF 393 renal = tested on: RXF 393 renal
T-47D breast = tested on: T-47D breast

Compound	TGI (A549 NSCLC)	TGI (NCI-H460 lung)	TGI (NCI-H522 lung)	TGI (OVCAR-5 ovarian)	TGI (OVCAR-8 ovarian)	TGI (SK-MEL-28 melanoma)	TGI (SNB-75 CNS)	TGI (TK-10 renal)	TGI (UO-31 renal)	GI50 (MDA-MB-231 breast)	TGI (MDA-MB-231 breast)	GI50 (NCI-H522 lung)	GI50 (OVCAR-8 ovarian)	GI50 (RXF 393 renal)	TGI (RXF 393 renal)	GI50 (SNB-75 CNS)	TGI (T-47D breast)
C#CCN(Cc1ccc2nc(-c3ccccc3)c(Cl)nc2c1)c1ccc(Cl)c(Cl)c1	> 100 µM	> 100 µM	> 100 µM	> 100 µM	> 100 µM	> 100 µM	> 100 µM	> 100 µM	> 100 µM								
COc1ccc(CNCCN2C(=O)c3ccc4c5c(ccc(c35)C2=O)C(=O)N(CCNCc2ccc(OC)c(OC)c2OC)C4=O)c(OC)c1OC			1.19 µM		0.648 µM		2.09 µM			0.239 µM	2.37 µM	0.519 µM	0.16 µM	0.279 µM	1.42 µM	0.903 µM	
Cc1nc(-n2nc(-c3ccccc3)cc2-c2ccccc2)sc1C(/C=C\c1ccc([N+](=O)[O-])cc1)=N/NC(=S)NN	> 100 µM	> 66.7 µM	42.3 µM	> 65.4 µM	28.6 µM	> 100 µM	> 100 µM	> 59.2 µM	> 58.3 µM						> 59 µM		87.7 µM
CCC(/C(=N/NC(=O)C[N+](C)(C)C)c1ccccc1)C1OC(=O)c2ccccc21 (stereo unspecified)	> 100 µM	> 100 µM	> 100 µM	> 100 µM	> 100 µM	> 100 µM	> 100 µM	> 100 µM	> 100 µM						> 100 µM		
Nc1nc2c(nnn2C2C=C(CO)C(O)C2O)c(=O)[nH]1 (stereo unspecified)	> 100 µM	> 100 µM	> 100 µM	> 100 µM	> 100 µM	> 100 µM	> 100 µM	> 100 µM	> 100 µM						> 100 µM		
O=C1C2=C(c3ccccc31)C(c1ccc([N+](=O)[O-])cc1)NC(=S)N2 (stereo unspecified)	> 100 µM	> 100 µM	> 100 µM	> 100 µM		> 100 µM	98.6 µM	> 100 µM	> 100 µM								
N#Cc1cc([N+](=O)[O-])ccc1NC(=O)C(=O)Nn1c(=S)[nH]c2ccccc2c1=O	> 100 µM	> 100 µM	> 100 µM	> 100 µM	> 100 µM	> 100 µM	> 100 µM	> 100 µM	> 100 µM						> 100 µM		
O=C(C#Cc1ccccc1)Nc1ccccc1CC(c1c[nH]c2ccccc12)c1c[nH]c2ccccc12	> 100 µM		26.5 µM		39.7 µM	32.4 µM	> 100 µM	96.6 µM	> 100 µM						14 µM		
CC(C)c1cccc(C(C)C)c1NC(=O)/C(Cc1nc2ccc(Cl)cc2[nH]c1=O)=N\NC(=O)C[N+](C)(C)C	> 100 µM	> 100 µM	> 100 µM	> 100 µM	> 100 µM	> 100 µM		> 100 µM	> 100 µM						> 100 µM		
CC(=O)Nc1ccc(S(=O)(=O)Nc2cnc3ccccc3n2)cc1	> 100 µM	> 100 µM	> 100 µM	> 100 µM	> 100 µM	> 100 µM	> 100 µM	> 100 µM	> 100 µM						> 100 µM		
Nc1nc(Cl)cc(OCC2(CO)CCCCC2)n1	> 100 µM	> 100 µM	> 100 µM	> 100 µM	> 100 µM	> 100 µM	> 100 µM	> 100 µM							> 100 µM		
Cc1ccc(C2=C(c3ccccc3)C(O)(c3ccccc3)C(c3ccccc3)=C2c2ccc(C)cc2)cc1	> 100 µM	> 100 µM	> 100 µM	> 100 µM	> 100 µM	> 100 µM	> 100 µM	> 100 µM	> 100 µM						> 100 µM		
O=C(Cn1cc(I)c(C(=O)NCC(O)CO)n1)NCC(O)CO (stereo unspecified)	> 100 µM	> 100 µM	> 100 µM		> 100 µM	> 100 µM	> 100 µM	> 100 µM	> 100 µM						> 100 µM		
COc1ccc(/C=C2\CCC(C)(CN(C)C)C2=O)cc1Br (stereo unspecified)	> 100 µM	> 57.2 µM	32.8 µM	> 100 µM	32.9 µM	45.4 µM	76.3 µM	44 µM	33.3 µM		68.1 µM				35.7 µM		
c1ccc(C2SCc3nc4ccccc4n32)cc1 (stereo unspecified)	> 100 µM	> 100 µM	77.8 µM	> 100 µM	> 100 µM	> 100 µM	69.8 µM	> 100 µM	> 100 µM						> 100 µM		
CCOC(=O)C1=C(C)NC(c2ccccc2)=C(C(=O)OCc2ccccc2)C1C#Cc1ccccc1 (stereo unspecified)				> 100 µM	> 100 µM		> 100 µM	> 100 µM	> 100 µM						> 100 µM		> 100 µM

Source: PubChem BioAssay (NCI)
